Results on two compounds are retold here after PubChem BioAssay (NCI).

Among the test systems are IGROV1 ovarian; NCI-H226 lung; TK-10 renal; SK-MEL-5 melanoma; OVCAR-5 ovarian; OVCAR-8 ovarian; MOLT-4 leukemia; U251 CNS; K-562 leukemia; ACHN renal.
Holding throughout (test): NCI-60 cell line screen, 48 h

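Cells were grown in 96-well plates and exposed to each compound for 48 hours at five concentrations; endpoints were interpolated linearly between bracketing concentrations, or set to the highest concentration if not reached. The concentration for 50% growth inhibition is given as GI50. At the TGI there is no net growth.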 Some results are limits rather than exact numbers.

For `c1ccc2c(C3NCCc4[nH]cnc43)cccc2c1` (stereo not given), the TGI in the experiment with IGROV1 ovarian, in the experiment with NCI-H226 lung, in the experiment on TK-10 renal, in the experiment with SK-MEL-5 melanoma, in the experiment with OVCAR-5 ovarian and in the experiment on OVCAR-8 ovarian was above 100 µM throughout. The TGI in the experiment with MOLT-4 leukemia, in the experiment with U251 CNS, in the experiment with K-562 leukemia and with ACHN renal was above 100 µM in each case.

`N=C(N)c1ccc(N2CCCN(c3ccc(C(=N)N)cc3)CC2)cc1`: the GI50 in the experiment with IGROV1 ovarian was above 100 µM; in the experiment with NCI-H226 lung it was 84.7 µM; with TK-10 renal it was 58.2 µM; in the experiment with SK-MEL-5 melanoma it was 27.9 µM; with OVCAR-5 ovarian, above 100 µM; in the experiment on OVCAR-8 ovarian, 49.6 µM. Further, the GI50 in the experiment on MOLT-4 leukemia is above 100 µM; with U251 CNS, 47.7 µM; with K-562 leukemia, 89.6 µM; in the experiment with ACHN renal it was above 100 µM. For the same compound, the TGI with IGROV1 ovarian, with NCI-H226 lung, with TK-10 renal, in the experiment on SK-MEL-5 melanoma, with OVCAR-5 ovarian and in the experiment with OVCAR-8 ovarian was above 100 µM each time. Moreover, the TGI in the experiment with MOLT-4 leukemia, in the experiment on U251 CNS, in the experiment with K-562 leukemia and in the experiment on ACHN renal was above 100 µM in each case.
